Measured values reported in patent US20140242012A1, “METHODS FOR TREATING UV-DAMAGED SKIN AND SCC TUMORS AND FOR REMOVING TATTOOS WITH TOPICAL INGENOL MEBUTATE” (LEO Laboratories Limited, priority 2011, published 2014).

Assays:
UVB-induced skin lesions = experiment: Field treatment of ~10 cm2 UVB-damaged skin: development of UVB-induced lesions; type: in vivo, SKH1/hr mice
From the text: Outbred SKH1/hr mice were irradiated 3 times per week for 10-11 weeks under 6×TL-12/40 W fluorescent tubes (Phillips, Amsterdam, The Netherlands) mounted in parallel. The lamps emit 54% UVB (280-315 nm) and 46% UVA (315-400 nm) (Rebel et al., 2001). During the irradiation mice were segregated into individual boxes (11.5×20 cm) with a piece of 0.125 mm cellulose acetate placed over the box to prevent any UVC reaching the mice. The mice were 26 cm below the UV lamps. Under these conditions the mice received 1.25 times the minimal erythemal dose (MED) of UVB at each exposure, with the total UVB dose being 37.5 MED. One MED was defined as the minimal UVB dose, which caused erythema-oedema evident by visual examination. […] Such cessation was usually only necessary after the initial 2-3 doses of UVB, as mice become resistant to UVB-induced erythema with repeated exposures.
One to three days after discontinuation of UVB irradiation, a ˜10 cm2 rectangular area located centrally on the dorsa and previously demarcated by a tattoo were treated topically, daily for 2 days with 100 μl of 0.05% ingenol mebutate gel or 100 μl of placebo gel. An untreated group served as an additional control. The mice were monitored weekly for the development of lesions both within and outside the treatment areas. […] The number and size of lesions was monitored over time. All visible lesions were counted. […]

Tattoo studies = type: in vivo, SKH1/hr mice; conditions: 50 μl topically daily for 2 days (Days 12 & 13), followed to Day 232, n=5
Protocol: Fifteen SKH1/hr mice are tattooed on their dorsa with an about 1 cm×about 1 cm cross using human grade blue tattoo ink (Tattoo supplies Australia, Catalogue number FFMB) on Day 0. Once the tattooed area heals (after 12 days), the tattoo (about 100 mm^2) is topically treated daily for 2 days with 50 μl of PEP005 gel or placebo gel (Day 12 & Day 13). Two PEP005 doses are tested: 0.1% and 0.25% (w/v). The mice are examined over time to assess any changes to the tattooed area and photographs are taken.
The aim study is to determine whether PEP005 gel can remove tattoo markings when applied topically. Fifteen mice are tattooed with a cross on their dorsa. Twelve days after the tattoos are drawn, they are treated topically daily for 2 days with 0.1% PEP005, 0.25% PEP005 or placebo gel. The photographs in FIG. 1 show the tattoo just prior to the first treatment (Day 12), 24 h after the first treatment (Day 13) and at different time points after the second treatment (from Day 14 onwards). […] One week after the second dose, an eschar encompassing the whole treatment area forms. This contracts over time and fully resolves after about 3 weeks (Day 32). […] Six to seven months after the PEP005 treatment is applied, the treated area heals, leaving skin with a slight pink tinge. […] There is no change in the placebo treated tattoos over this time frame. […]

B16 = conditions: Ogbourne et al. 2004; cited from earlier work
[1] = Ogbourne et al. 2004; cited from earlier work

For `C/C=C(/C)C(=O)O[C@H]1C(C)=C[C@]23C(=O)[C@@H](C=C(CO)[C@@H](O)[C@]12O)[C@H]1[C@@H](C[C@H]3C)C1(C)C` [ingenol mebutate], the “growth of individual lesions vs control and placebo” value (UVB-induced skin lesions; lesions within the treatment areas) was “no significant difference”, the “number of lesions outside the treatment area” value (UVB-induced skin lesions; ~10 cm2 area) was “not significantly affected” and the “removal of tattoo markings” value (Tattoo studies) was “eradication of the tattoo markings”. For the same compound, the LD90 (B16) was 190 µM and the LD90 values [1] was 180 to 220 µM.
